Test results reported in article PMC3871636 (PLoS ONE, 2013).

Key:
[1] = target: T1, double-labeled CYP3A4 C64/C121-DY/ER (Homo sapiens, UniProt P08684, A121C/C239S/C377S/C468A/C98S/S18F); test: Steady-state LRET titration (delayed emission); settings: Table S2; protein C64/C121-ER/DY; same ligand concentrations
Description: (§1) All absorbance and fluorescence assays (including the time-resolved fluorescence measurements) were performed at a protein concentration ≤1 µM at 25°C with continuous stirring. Absorbance spectra were recorded with an S2000 rapid scanning CCD spectrometer (Ocean Optics). Ligand binding assays were done in 100 mM Na-Hepes buffer, pH 7.4, containing 0.5 mM EDTA.
(§2) Fluorescence-based ligand binding assays were done under anaerobic conditions. Anaerobiosis was achieved using an oxygen-scavenging system consisting of protecatechuate-3,4-dioxygenase (0.5 units/ml) and 5 mM protocatechuic acid. The steady state and time-resolved phosphorescence measurements were performed with the use of a Cary Eclipse fluorescence spectrophotometer (Varian/Agilent Technologies). The excitation wavelength was set to 540 nm. Spectra were taken from 650 to 860 nm with 100 µs delay.
(§3) Quantitative interpretation of LRET results was also based on the use of PCA applied to a series of emission spectra normalized on integral intensity. […] Intensity of the donor and acceptor fluorescence obtained in this way were used in determination of the efficiency of steady-state LRET using the equation [drawing 1] (Eq.1) where I ad is emission intensity of the acceptor, I da is the residual donor emission in the presence of acceptor (I da), Φ a and Φ d are the quantum yield of the fluorescence of acceptor and the quantum yield of the phosphorescence of donor, respectively.
(§4) Distances were calculated using the equation: [drawing 3] (Eq.3) where R 0 is the Förster distance, and R is the distance between the donor and acceptor. R 0 was calculated with the use of PhotoChemCad software. In these calculations, we used the values of the orientation factor (κ^2) and the refractive index (n) of 0.667 and 1.4, respectively.
(§5) When fitting the results of titration experiments, where the changes in the monitored signal A S (fraction of the enzyme in the high-spin state, intensity or the lifetime of the donor phosphorescence at a given substrate concentration) were assumed to be proportional to [ES], this equation was complemented with the offset A 0 and the scaling factor A max to yield the following relationship: [drawing 5] (Eq.5)

[2] = target: T2, double-labeled CYP3A4 (C64/C468)-DY/ER (Homo sapiens, UniProt P08684, S18F, form not given); test: Steady-state LRET titration (delayed emission); type: binding
T2 sequence (P08684 13-503 S18F, form open): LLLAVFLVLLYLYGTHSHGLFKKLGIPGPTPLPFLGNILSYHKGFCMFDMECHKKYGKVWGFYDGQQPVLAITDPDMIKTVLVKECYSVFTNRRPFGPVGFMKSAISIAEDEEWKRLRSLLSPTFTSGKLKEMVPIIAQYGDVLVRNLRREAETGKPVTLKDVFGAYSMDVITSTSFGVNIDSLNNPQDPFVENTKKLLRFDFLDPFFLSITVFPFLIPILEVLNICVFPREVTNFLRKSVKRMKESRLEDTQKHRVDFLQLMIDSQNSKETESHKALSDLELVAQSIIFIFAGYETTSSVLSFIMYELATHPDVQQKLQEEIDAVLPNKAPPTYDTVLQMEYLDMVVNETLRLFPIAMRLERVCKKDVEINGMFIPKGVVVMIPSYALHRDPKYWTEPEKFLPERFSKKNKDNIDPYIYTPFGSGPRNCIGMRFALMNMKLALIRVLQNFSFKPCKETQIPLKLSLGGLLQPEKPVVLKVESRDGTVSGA
Description: as §1, §2, §3, §4, §5

[3] = target: T3, double-labeled CYP3A4 C377/C468-DY/ER (Homo sapiens, UniProt P08684, S18F, form not given); test: Steady-state LRET titration (delayed emission); type: binding; settings: Table S2; protein C377/C468-ER/DY; same ligand concentrations
T3 sequence (P08684 13-503 S18F, form open): as above
Description: as §1, §2, §3, §4, §5

[4] = target: T4, double-labeled CYP3A4 (C64/C468)-ER/DY (Homo sapiens, UniProt P08684, S18F, form not given); test: Steady-state LRET titration (delayed emission); type: binding
T4 sequence (P08684 13-503 S18F, form open): as above
Description: as §1, §2, §3, §4, §5

[5] = target: CYP3A4 (double-labeled (C64/C468)-DY/ER) (Homo sapiens, UniProt P08684, form not given/S18F); test: Steady-state LRET titration (delayed emission); type: binding; settings: human, purified double-labeled CYP3A4 C64/C468-DY/ER protein, pH 7.4
Sequence of CYP3A4 (double-labeled (C64/C468)-DY/ER) (P08684 13-503 S18F, form open): as above
Description: as §1, §2, §3, §4, §5

[6] = target: CYP3A4 (double-labeled (C64/C468)-ER/DY) (Homo sapiens, UniProt P08684, form not given/S18F); test: Steady-state LRET titration (delayed emission); type: binding; settings: human, purified double-labeled CYP3A4 C64/C468-ER/DY protein, pH 7.4
Sequence of CYP3A4 (double-labeled (C64/C468)-ER/DY) (P08684 13-503 S18F, form open): as above
Description: as §1, §2, §3, §4, §5

[7] = target: CYP3A4 (double-labeled C64/C468-ER/DY) (Homo sapiens, UniProt P08684, form not given/S18F); test: Ligand-induced spin shift, absorbance titration; type: binding; settings: human, purified double-labeled CYP3A4 C64/C468-ER/DY protein, pH 7.4
Sequence of CYP3A4 (double-labeled C64/C468-ER/DY) (P08684 13-503 S18F, form open): as above
Description: as §1
(§6) Absorbance spectra obtained in titration experiments were analyzed with a principal component analysis (PCA) procedure complemented with least-square approximation of the principal vectors with a combination of the prototypical spectra of the CYP3A4 low-spin, high-spin and Type II-substrate-bound ferric CYP3A4 P450 states as described, [31].
as §5

CYP3A4 (C64/C468 mutant) = CYP3A4 (C64/C468 mutant) (Homo sapiens, UniProt P08684, form not given/S18F); test: Ligand-induced spin shift, absorbance titration; type: binding; settings: human, purified CYP3A4(C64/C468) mutant protein, pH 7.4
Sequence of CYP3A4 (C64/C468 mutant) (P08684 13-503 S18F, form open): as above
Description: as §1, §6, §5

[8] = target: CYP3A4 (C377/C468 mutant) (Homo sapiens, UniProt P08684, form not given/S18F); test: Ligand-induced spin shift, absorbance titration; type: binding; settings: human, purified CYP3A4(C377/C468) mutant protein, pH 7.4
Sequence of CYP3A4 (C377/C468 mutant) (P08684 13-503 S18F, form open): as above
Description: as §1, §6, §5

[9] = target: T2, double-labeled CYP3A4 (C64/C468)-DY/ER; test: Time-resolved LRET (phosphorescence lifetime measurements)
Excerpt: (§7) The excitation wavelength was set to 540 nm.

[10] = target: T3, double-labeled CYP3A4 C377/C468-DY/ER; test: as above
Excerpt: as §7

[11] = target: T4, double-labeled CYP3A4 (C64/C468)-ER/DY; test: as above
Excerpt: as §7

[12] = target: T1, double-labeled CYP3A4 C64/C121-DY/ER; test: as above
Description: as §1, §2
The treatment of the time-resolved decay traces was performed using a bi-exponential approximation. The efficiency of time-resolved LRET was calculated using the equation [drawing 2] (Eq.2)
In this equation τda and τd designate the average lifetime of the excited state of the donor in the presence and absence of the acceptor, respectively. These average lifetimes are determined as τ = α1τ1+α2τ2, where τ1,2 and α1,2 stay for the lifetime and the relative amplitude of each of the two exponential terms. In our calculations of the lifetime in double-labeled C64/C468, C377/C468 and C64/C121 proteins we used the lifetimes of phosphorescence measured with the respective proteins labeled with ERIA at a label:protein ratio 2∶1 as the estimates of τd.
as §4

[13] = Table S2, C64/C468-DY/ER, same ligand concentrations
[14] = Table S2, C64/C468-ER/DY, same ligand concentrations
[15] = Table S1, (C64/C468)-DY/ER, same ligand concentrations
[16] = Table S1, protein (C377/C468)-ER/DY, same ligand concentrations
[17] = Table S2, protein C377/C468-ER/DY, same ligand concentrations
[18] = Table S1, (C64/C468)-ER/DY, same ligand concentrations
[19] = Table S1, protein (C64/C121)-ER/DY, same ligand concentrations
[20] = Table S2, protein C64/C121-ER/DY, same ligand concentrations

T1 sequence (P08684 with tags, fused parts or gaps S18F/C98S/A121C/C239S/C377S/C468A limits assumed): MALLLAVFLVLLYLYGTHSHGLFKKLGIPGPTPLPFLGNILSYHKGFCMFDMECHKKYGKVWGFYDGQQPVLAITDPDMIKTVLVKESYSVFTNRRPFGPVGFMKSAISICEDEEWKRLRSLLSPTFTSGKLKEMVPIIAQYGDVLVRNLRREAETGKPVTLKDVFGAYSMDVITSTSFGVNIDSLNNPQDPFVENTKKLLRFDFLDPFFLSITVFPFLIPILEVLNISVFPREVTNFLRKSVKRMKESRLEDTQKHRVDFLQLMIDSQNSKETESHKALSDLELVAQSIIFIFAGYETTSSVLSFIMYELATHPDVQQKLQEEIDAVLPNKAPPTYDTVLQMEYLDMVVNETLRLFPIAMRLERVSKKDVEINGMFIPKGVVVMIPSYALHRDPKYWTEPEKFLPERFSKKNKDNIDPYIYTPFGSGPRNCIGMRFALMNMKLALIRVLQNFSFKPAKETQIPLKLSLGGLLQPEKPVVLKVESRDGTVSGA

Structure (SMILES): C[C@]12CC[C@H]3[C@@H](CCC4=CC(=O)CC[C@@]43C)[C@@H]1CC[C@@H]2O [Testosterone, testosterone]
- R (interprobe distance with ligand), steady-state measurements [1]: 43.9 ± 0.5 Å
- ΔR, steady-state measurements [1]: 1.3 ± 0.5 Å
- ΔR (change in interprobe distance), steady-state fluorescence ([2]; (C64/C468)-DY/ER): 5.5±1.9 Å
- R (interprobe distance with ligand), steady-state measurements [2, 13]: 40.4 ± 1.9 Å
- ΔR, steady-state measurements [2, 13]: 5.5 ± 1.9 Å
- R (interprobe distance with ligand), steady-state measurements [3]: 46.7 ± 0.7 Å
- ΔR, steady-state measurements [3]: 2.0 ± 0.7 Å
- ΔR (change in interprobe distance), steady-state fluorescence ([4]; (C64/C468)-ER/DY): 3.1±1.0 Å
- R (interprobe distance with ligand), steady-state measurements [4, 14]: 42.2 ± 1.0 Å
- ΔR, steady-state measurements [4, 14]: 3.1 ± 1.0 Å
- Kd [5]: 16.4 ± 3.5 µM
- Kd [6]: 22.8 ± 3.6 µM
- Kd [7]: 38 ± 6 µM
- Kd (CYP3A4 (C64/C468 mutant)): 39 ± 10 µM
- Kd [8]: 51 ± 8 µM
- τ1 (phosphorescence decay time with ligand) ([9]; Table S1, (C64/C468)-DY/ER, 1-PB 40 µM, ANF 100 µM, BCT 2.5 µM, cholesterol 100 µM, testosterone 100 µM, bi-exponential fit): 69 ± 1 µs
- F1 (fraction of first exponential) [9, 15]: 39 ± 8%
- τ2 (phosphorescence decay time with ligand) [9, 15]: 247 ± 2 µs
- τav (average phosphorescence lifetime with ligand) [9, 15]: 176 ± 2 µs
- R (interprobe distance with ligand), lifetime measurements [9, 13]: 41.6 ± 0.3 Å
- ΔR, lifetime measurements [9, 13]: 4.8 ± 0.3 Å
- τ1 (phosphorescence decay time with ligand) ([10]; Table S1, protein (C377/C468)-ER/DY, 1-PB 40 µM, ANF 100 µM, BCT 2.5 µM, cholesterol 100 µM, testosterone 100 µM, bi-exponential fit): 42 ± 9 µs
- F1 (fraction of first exponential) [10, 16]: 26 ± 7%
- τ2 (phosphorescence decay time with ligand) [10, 16]: 193 ± 5 µs
- τav (average phosphorescence lifetime with ligand) [10, 16]: 152 ± 12 µs
- R (interprobe distance with ligand), lifetime measurements [10, 17]: 45.3 ± 3.0 Å
- ΔR, lifetime measurements [10, 17]: 8.5 ± 3.0 Å
- ΔR (change in interprobe distance), lifetime measurements ([11]; (C64/C468)-ER/DY, nearly-saturating ligand: ANF 100 µM, bromocriptine 2.5 µM, cholesterol 50 µM, testosterone 100 µM): 4.5±0.5 Å
- τ1 (phosphorescence decay time with ligand) ([11]; Table S1, (C64/C468)-ER/DY, 1-PB 40 µM, ANF 100 µM, BCT 2.5 µM, cholesterol 100 µM, testosterone 100 µM, bi-exponential fit): 67 ± 6 µs
- F1 (fraction of first exponential) [11, 18]: 48 ± 2%
- τ2 (phosphorescence decay time with ligand) [11, 18]: 267 ± 11 µs
- τav (average phosphorescence lifetime with ligand) [11, 18]: 171 ± 4 µs
- R (interprobe distance with ligand), lifetime measurements [11, 14]: 40.8 ± 0.6 Å
- ΔR, lifetime measurements [11, 14]: 4.5 ± 0.6 Å
- τ1 (phosphorescence decay time with ligand) ([12]; Table S1, protein (C64/C121)-ER/DY, 1-PB 40 µM, ANF 100 µM, BCT 2.5 µM, cholesterol 100 µM, testosterone 100 µM, bi-exponential fit): 66 ± 9 µs
- F1 (fraction of first exponential) [12, 19]: 38 ± 4%
- τ2 (phosphorescence decay time with ligand) [12, 19]: 228 ± 23 µs
- τav (average phosphorescence lifetime with ligand) [12, 19]: 165 ± 9 µs
- R (interprobe distance with ligand), lifetime measurements [12, 20]: 36.9 ± 0.7 Å
- ΔR, lifetime measurements [12, 20]: 1.9 ± 0.7 Å
